Reference: patent publication US7179814B2, “Agents for controlling plant pests” (priority 1998, dated 2007)
Like-named read-outs stand apart in the source and are kept apart here.

Legend:
[1] = tested on: Diabrotica balteata larvae in soil; assay: Critical concentration test/soil insects, Diabrotica balteata; assay type: in vivo; conditions: Diabrotica balteata, 168 h; 20.0 ppm in soil, 7 days after infestation; read-out: Kill in %
Method: (§1) To produce a suitable preparation of active compound, 1 part by weight of the active compound or the active compound mixture is mixed with the stated amounts of solvent and emulsifier, and the concentrate is diluted with water to the desired concentration.
(§2) The active compound preparation is mixed intimately with soil. Here, the concentration of the active compound in the preparation is almost irrelevant; only the amount by weight of active compound or active compound mixture per volume unit of soil, which is stated in ppm (mg/l), matters.
Soil is filled into 0.5 l pots and these are allowed to stand at 20° C. Immediately after preparation, 5 pre-germinated maize corns are placed into each pot. After 2 days, the test insects are placed into the treated soil. After a further 7 days, the kill in % is determined. 100% means that all test insects have been killed; 0% means that none of the test insects have been killed.

Spodoptera frugiperda = assay: Critical concentration test/soil insects, Spodoptera frugiperda; assay type: in vivo; conditions: 120 h, 20.00 ppm in soil, 5 days after infestation, read-out: Kill in %
Method: as §1, §2
Soil is filled into 0.5 l pots and these are allowed to stand at 20° C. Immediately after preparation, 3 pre-germinated maize corns are placed into each pot. After the maize corns have emerged, boring sleeves are placed onto the pots. 9 days after preparation, the maize is populated with the test insects. After a further 5 days, the kill in % is determined. 100% means that all test insects have been killed; 0% means that the number of insects which are still alive is the same as for the untreated control.

[2] = tested on: Heliothis virescens caterpillars; assay: Heliothis virescens test (soya bean shoot dip); assay type: in vivo; conditions: concentration 0.004 %
Method: (§3) To produce a suitable preparation of active compound, 1 part by weight of an active compound or an active compound combination is mixed with the stated amounts of solvent and emulsifier, and the concentrate is diluted with water to the desired concentration.
Soya bean shoots (Glycine max) are treated by being dipped into the active compound preparation of the desired concentration and are populated with Heliothis virescens caterpillars while the leaves are still moist.
After the desired period of time, the kill in % is determined. 100% means that all caterpillars have been killed; 0% means that none of the caterpillars have been killed.

Sphaerotheca fuliginea = assay: Sphaerotheca test (cucumber)/protective; assay type: in vivo; conditions: 10 g/ha, single active compound, 10 days after inoculation
Method: as §3, with “of” for “of an”, “or” for “or an”, “desired concentration, or a commercial formulation of active compound or active compound combination is diluted with water to the desired” for “desired”
To test for protective activity, young plants are sprayed with the commercial active compound preparation at the stated application rate. After the spray coating has dried on, the plants are inoculated with an aqueous spore suspension of Sphaerotheca fuliginea. The plants are then placed in a greenhouse at approximately 23° C. and a relative atmospheric humidity of approximately 70%.
(§4) Evaluation is carried out 10 days after the inoculation. 0% means an efficacy which corresponds to that of the control, whereas an efficacy of 100% means that no infection is observed.

[3] = tested on: caterpillars of the diamondback moth (Plutella xylostella); assay: Plutella test (cabbage leaf dip); assay type: in vivo
Method: as §3
Cabbage leaves (Brassica oleracea) are treated by being dipped into the preparation of active compound of the desired concentration and are populated with caterpillars of the diamondback moth (Plutella xylostella) while the leaves are still moist.
After the desired period of time, the kill in % is determined 100% means that all caterpillars have been killed; 0% means that none of the caterpillars have been killed.

[4] = tested on: larvae of the mustard beetle (Phaedon cochleariae); assay: Phaedon larvae test (cabbage leaf dip); assay type: in vivo
Method: as §3
Cabbage leaves (Brassica oleracea) are treated by being dipped into the preparation of active compound of the desired concentration and are populated with larvae of the mustard beetle (Phaedon cochleariae) while the leaves are still moist.
After the desired period of time, the kill in % is determined. 100% means that all beetle larvae have been killed; 0% means that none of the beetle larvae have been killed.

Fusarium culmorum = Fusarium culmorum test (wheat)/seed treatment; assay type: in vivo; conditions: 75 g/ha, dry seed dressing, approximately 3 weeks after sowing
Method: The active compounds are applied as a dry dressing. They are prepared by extending the active compound in question with ground minerals to give a finely pulverulent mixture which ensures even distribution on the surface of the seeds.
For the dressing, the infected seeds are shaken with the dressing in a closed glass bottle for 3 minutes.
2×100 seeds of the wheat are sown at a depth of 1 cm into standard soil, and the wheat is cultivated in a greenhouse at a temperature of approximately 18° C. and at a relative atmospheric humidity of approximately 95% in seed containers receiving 15 hours of light per day.
The evaluation of the plants for symptoms is carried out approximately 3 weeks after sowding. 0% means an efficacy which corresponds to that of the control, whereas an efficacy of 100% means that no infection is observed.

Phytophthora infestans = assay type: in vivo; conditions: single active compound
[5] = tested on: Erysiphe graminis f.sp. tritici; assay: Erysiphe test (wheat)/protective; assay type: in vivo; conditions: single active compound
Method: as §3, with “of” for “of an”, “or” for “or an”, “desired concentration, or a commercial formulation of active compound or active compound combination is diluted with water to the desired” for “desired”
(§5) To test for protective activity, young plants are sprayed with the preparation of active compound at the stated application rate.
After the spray coating has dried on, the plants are dusted with spores of Erysiphe graminis f.sp. tritici.
(§6) The plants are placed in a greenhouse at a temperature of approximately 20° C. and a relative atmospheric humidity of approximately 80% to promote the development of mildew pustules.
(§7) Evaluation is carried out 7 days after the inoculation. 0% means an efficacy which corresponds to that of the control, whereas an efficacy of 100% means that no infection is observed.

[6] = tested on: Erysiphe graminis f.sp. hordei; assay: Erysiphe test (barley)/protective; assay type: in vivo; conditions: 62.5 g/ha, single active compound, 7 days after inoculation
Method: as §3, with “of” for “of an”, “or” for “or an”, “desired concentration, or a commercial formulation of active compound or active compound combination is diluted with water to the desired” for “desired”
as §5
After the spray coating has dried on, the plants are dusted with spores of Erysiphe graminis f.sp. hordei.
as §6, §7

Puccinia recondita = assay: Puccinia test (wheat)/protective; assay type: in vivo; conditions: 62.5 g/ha, 10 days after inoculation
Method: as §3, with “of” for “of an”, “or” for “or an”, “desired concentration, or a commercial formulation of active compound or active compound combination is diluted with water to the desired” for “desired”
(§8) To test for protective activity, young plants are sprayed with the active compound preparation at the stated application rate. After the spray coating has dried on, the plants are sprayed with a conidia suspension of Puccinia recondita. The plants remain in an incubation cabin at 20° C. and 100% relative atmospheric humidity for 48 hours.
The plants are then placed in a greenhouse at a temperature of approximately 20° C. and a relative atmospheric humidity of 80% to promote the development of rust pustules.
as §4

Pyrenophora teres = Pyrenophora teres test (barley)/protective; assay type: in vivo; conditions: single active compound
Method: as §3, with “of” for “of an”, “or” for “or an”, “desired concentration, or a commercial formulation of active compound or active compound combination is diluted with water to the desired” for “desired”
as §8, with “Pyrenophora teres.” for “Puccinia recondita.”
The plants are then placed in a greenhouse at a temperature of approximately 20° C. and a relative atmospheric humidity of approximately 80%.
as §7

[7] = tested on: green rice leaf hopper (Nephotettix cincticeps); assay: Nephotettix test (rice seedling dip); assay type: in vivo
Method: as §3
Rice seedlings (Oryza sativa) are treated by being dipped into the active compound preparation of the desired concentration and are populated with the green rice leaf hopper (Nephotettix cincticeps) while the leaves are still moist.
After the desired period of time, the kill in % is determined. 100% means that all the leaf hoppers have been killed; 0% means that none of the leaf hoppers have been killed.

[8] = tested on: Phaedon cochleariae larvae; assay: Critical concentration test/root-systemic action, Phaedon cochleariae; assay type: in vivo; conditions: 72 h, 20.00 ppm in soil, root-systemic, 3 days after infestation, read-out: Kill in %
Method: as §1, §2
Soil is filled into 250 ml pots and these are planted with cabbage (Brassica oleracea). The active compound or the active compound combination can thus be taken up by the plant roots from the soil and transported into the leaves.
After 7 days, the leaves are populated with the abovementioned test animals. After a further 3 days, the kill in % is determined. 100% means that all test insects have been killed; 0% means that the number of insects which are still alive is the same as in the untreated control.

green peach aphid = assay: Myzus test (cabbage leaf dip); assay type: in vivo, Myzus (green peach aphid); conditions: concentration 0.1 %
Method: as §3
Cabbage leaves (Brassica oleracea) which are heavily infested by the green peach aphid are treated by being dipped into the active compound preparation of the desired concentration.
After the desired period of time, the kill in % is determined. 100% means that all aphids have been killed; 0% means that none of the aphids have been killed.

[9] = 62.5 g/ha, 7 days after inoculation

`CC(C1CC1)C(O)(Cn1cncn1)c1ccc(Cl)cc1` (stereo not drawn) [cyproconazole] was tested. Which pest or weed control at 20 ppm [1] did it give?
Its pest or weed control at 20 ppm is 0%.

What about the pest or weed control at 20 ppm (Spodoptera frugiperda) of the same compound?
The pest or weed control at 20 ppm was 0%.

And the Kill in % [2]?
Its Kill in % is 0%.

What about the Efficacy in % (Sphaerotheca fuliginea) of the same compound?
The Efficacy in % was 70%.

What about the Kill in % ([3]; concentration 0.004 %) of the same compound?
Its Kill in % is 0%.

What about the Kill in % ([4]; concentration 0.004 %) of the same compound?
The Kill in % was 10%.

And the Efficacy in % (Fusarium culmorum)?
Its Efficacy in % is 1%.

For `Cc1ccc(C(C)NC(=O)C(NC(=O)OC(C)C)C(C)C)cc1` (racemic) [SZX722], which Efficacy in % (Phytophthora infestans; 10 g/ha) is on record?
The Efficacy in % was 88%.

Which results are given for `CO/N=C(/C(=O)OC)c1ccccc1COc1ccccc1C` [kresoxim-methyl]?
pest or weed control at 20 ppm [1]: 0%; Efficacy in % calculated/found ([5]; 18.75 g/ha): 43%; Efficacy in % calculated/found [5, 9]: 79%; Kill in % ([4]; concentration 0.1 %): 0%; Efficacy in % calculated/found [6]: 0%

For `CCCC1COC(Cn2cncn2)(c2ccc(Cl)cc2Cl)O1` (stereo not drawn) [propiconazole], which Efficacy in % (Puccinia recondita) is on record?
The Efficacy in % was 75%.

And the “Efficacy in % calculated/found” value (Pyrenophora teres; [9])?
The value was 0%.

And the pest or weed control at 20 ppm [1]?
The pest or weed control at 20 ppm was 0%.

And the pest or weed control at 20 ppm (Spodoptera frugiperda)?
Its pest or weed control at 20 ppm is 0%.

What about the Efficacy in % (Phytophthora infestans; 500 g/ha, 3 days after inoculation) of the same compound?
Its Efficacy in % is 5%.

And the Kill in % ([7]; concentration 0.004 %)?
The Kill in % was 0%.

And the pest or weed control at 20 ppm [8]?
Its pest or weed control at 20 ppm is 0%.

Which results are given for `CC(C)(C)C(O)C(Oc1ccc(Cl)cc1)n1cncn1` (stereo not drawn) [triadimenol]?
Efficacy in % calculated/found (Pyrenophora teres; 18.75 g/ha): 40%; pest or weed control at 20 ppm [1]: 0%; pest or weed control at 20 ppm (Spodoptera frugiperda): 0%; pest or weed control at 20 ppm [8]: 0%

`O=C(Nc1ccccc1)N(Cc1ccc(Cl)cc1)C1CCCC1` [pencycuron] was tested. Which pest or weed control at 20 ppm [1] did it give?
Its pest or weed control at 20 ppm is 0%.

What about the Kill in % ([7]; concentration 0.1 %) of the same compound?
Its Kill in % is 0%.

And the Kill in % ([3]; concentration 0.1 %)?
The Kill in % was 0%.

And the Kill in % (green peach aphid)?
The Kill in % was 0%.

How did the pest or weed control at 20 ppm [1] turn out when `COCC(=O)N(c1c(C)cccc1C)C(C)C(=O)OC` (stereo not drawn) [metalaxyl] was run?
The pest or weed control at 20 ppm was 0%.

And the pest or weed control at 20 ppm (Spodoptera frugiperda)?
Its pest or weed control at 20 ppm is 0%.

What about the Kill in % ([7]; concentration 0.1 %) of the same compound?
The Kill in % was 0%.

What about the pest or weed control at 20 ppm [8] of the same compound?
The pest or weed control at 20 ppm was 0%.

And the Kill in % (green peach aphid)?
The Kill in % was 0%.
